Source: patent publication US20190022092A1, “Therapeutic Combinations of a BTK Inhibitor and a GITR Binding Molecule, a 4-1BB Agonist, or an OX40 Agonist” (Acerta Pharma B.V., priority 2015, published 2019)

Assays:
[1] = system: BCR; activation markers CD69 and CD86; assay: In vivo potency: BCR stimulated with IgM, CD69 and CD86 expression by flow cytometry; conditions: mice gavaged, sacrificed 3 hours post-dose, compared with ibrutinib
Description: Mice were gavaged at increasing drug concentration and sacrificed at one time point (3 hours post-dose). BCR is stimulated with IgM and the expression of activation markers CD69 and CD86 are monitored by flow cytometry to determine EC50 values.

CD8+ T cell [2] = assay: Cytotoxicity assay for CD8+ T cell function; format: cell-based; conditions: relative to vehicle
From the text: FIG. 38 illustrates the results of the cytotoxicity assay for CD8^+ T cell function.

CD8+ T cell [3] = assay: IFN-γ level measurements for CD8+ T cell function; format: cell-based; conditions: relative to vehicle
From the text: FIG. 39 illustrates the results of IFN-γ level measurements for CD8^+ T cell function.

[4] = Cardiovascular function study in awake telemeterized dogs; format: in vivo; conditions: male beagle dogs, single doses through 30 mg/kg
From the text: Formula (2) was well tolerated in standard in vivo Good Laboratory Practices (GLP) studies of pharmacologic safety.

CYP3A4 = CYP3A4 (Homo sapiens, UniProt P08684); assay: In vitro loss of parent drug as catalyzed by CYPs; format: in vitro ADME
[5] = In vitro metabolism in hepatocytes with 14C-labeled drug; format: in vitro ADME, and human; conditions: mouse, rat, dog, rabbit, monkey, human hepatocytes
[6] = Preliminary evaluation of metabolism in plasma, bile and urine; format: in vivo; conditions: rats, dogs, monkeys
CYP enzymes = assay: Nonclinical CYP interaction studies; format: in vitro ADME
ID8 ovarian cancer = assay: ID8 syngeneic orthotopic ovarian cancer murine model; format: in vivo, mice; conditions: 15 mg/kg/BID orally
From the text: […] ovarian cancer models, including the ID8 syngeneic orthotopic ovarian cancer model and other animal models, are described in Fong and Kakar, J. Ovarian Res. 2009, 2, 12; Greenaway, et al., Gynecol. Oncol. 2008, 108, 385-94; Urzua, et al., Tumour Biol. 2005, 26, 236-44; Janat-Amsbury, et al., Anticancer Res. 2006, 26, 3223-28; Janat-Amsbury, et al., Anticancer Res. 2006, 26, 2785-89. […] The results of the study are shown in FIG. 8, FIG. 9, FIG. 10, FIG. 11, FIG. 12, FIG. 13, FIG. 14, and FIG. 15.

[7] = system: pancreatic cancer (KPC mice); assay: KPC pancreatic cancer mouse model; format: in vivo
From the text: The KPC mouse model recapitulates many of the molecular, histopathologic, and clinical features of human disease (Westphalen and Olive, Cancer J. 2012, 18, 502-510). Mice were enrolled after identification of spontaneously appearing tumors in the pancreas that were ≥100 mm^3 (as assessed by high-resolution ultrasonography).

NSCLC (KrasLA2) = assay: KrasLA2 genetic tumor model of NSCLC; format: in vivo; conditions: KrasLA2 mice, 15 mg/kg
From the text: The model is designed to have sporadic expression in single cells of G12D mutant Kras off its own promoter triggered by spontaneous intrachromosomal recombination. Johnson, et al., Nature 2001, 410, 1111-16. While the mutant Kras protein is expressed in a few cells in all tissues, tumor development is seen only in the lung at high penetrance.

BTK = biological target: T1, BTK (Mus musculus, UniProt P35991); assay: Molecular probe assay of BTK occupancy in MDSCs of tumor bearing PDA mice; format: in vivo; conditions: 15 mg/kg BID, Day 8, 4 hours post dose
T1 construct: endogenous in cells; host or cells: granulocytic and monocytic MDSCs from tumor-bearing PDA mice
From the text: A molecular probe assay was used to calculate the percent irreversible occupancy of total BTK.

[8] = system: NK cells co-cultured with antibody-coated DHL-4 or HER18 target cells; assay: NK cell lytic granule release (CD107a) by flow cytometry; format: cell-based, human; conditions: 1 μM; HER18 targets, trastuzumab 10 μg/mL
From the text: Prior to assay, HER18 cells were harvested using trypsin-EDTA, washed with phosphate-buffered saline (PBS) containing 5% serum and viable cells were counted. For culture of primary target cells, peripheral blood from CLL patients was subject to density centrifugation to obtain peripheral blood mononuclear cells (PBMC). Cell preparations were washed and then subject to positive selection of CD5^+CD19^+ CLL cells using magnetic beads (MACS, Miltenyi Biotech). Cell preparations were used fresh after selection. NK cells from CLL patients and healthy volunteers were enriched from peripheral blood collected in sodium citrate anticoagulant tubes and then subject to density centrifugation. Removal of non NK cells was performed using negative selection by MACS separation. […]
Lytic granule release was determined as follows. […] Degranulation was evaluated via by flow cytometery by externalization of CD107a, a protein normally present on the inner leaflet of lytic granules, and gating on NK cells (CD3-CD16^+ lymphocytes). The percentage of CD107a positive NK cells was quantified by comparison with a negative control (isotype control, unstained cells/FMO). Control cultures (NK cells cultured without target cells, or NK, target cell co-cultures in the absence of appropriate monoclonal antibody) were also evaluated; all experiments were performed in triplicate.

Th17 and Treg cells = assay: Th17 and Treg development of CD4+ T cells under skewing cytokines; format: cell-based
Description: Enriched CD4^+ T cells are plated on 24-well culture dishes that have been precoated 2 hr with 250 μL anti-TCRβ (0.5 μg/mL) plus anti-CD28 (5 μg/mL) at 37° C. in PBS. The cells are then supplemented with media containing BTK inhibitors along with the skewing cytokines as indicated in the following. The Th17 and Treg cultures are grown for 4 days before analysis. The cells are maintained for an additional 3 days with skewing cytokines (Th17; 20 ng/mL IL-6, 0.5 ng/mL TGF-β, 5 μg/mL IL-4, 5 μg/mL IFN-γ and Treg; 0.5 ng/mL TGF-β, 5 μg/mL IL-4, 5 μg/mL IFN-γ) and are supplemented with IL2 as a growth factor.

CD8+ T cells = assay: CD8+ T cell viability on anti-TCR/anti-CD28 coated wells; format: cell-based; conditions: 4 days, neutral culture conditions
Description: Total T cells were plated on anti-TCR and anti-CD28 coated wells in the presence of both BTK inhibitors. Neutral culture conditions were used that will not polarize T cells to a helper lineage. […] Statistical significance was calculated using the Mann Whitney T-test.

CLL = assay: Clinical study of Formula (2) in CLL (ALC, SPD, PFS, immune cells, apoptosis, chemokines); conditions: CLL patients, relative to ibrutinib (Byrd et al. 2013)
From the text: Trendlines are shown for % change in MDSC (monocytic) level and % change in NK cell level.

Sequence of CYP3A4 (P08684 whole entry): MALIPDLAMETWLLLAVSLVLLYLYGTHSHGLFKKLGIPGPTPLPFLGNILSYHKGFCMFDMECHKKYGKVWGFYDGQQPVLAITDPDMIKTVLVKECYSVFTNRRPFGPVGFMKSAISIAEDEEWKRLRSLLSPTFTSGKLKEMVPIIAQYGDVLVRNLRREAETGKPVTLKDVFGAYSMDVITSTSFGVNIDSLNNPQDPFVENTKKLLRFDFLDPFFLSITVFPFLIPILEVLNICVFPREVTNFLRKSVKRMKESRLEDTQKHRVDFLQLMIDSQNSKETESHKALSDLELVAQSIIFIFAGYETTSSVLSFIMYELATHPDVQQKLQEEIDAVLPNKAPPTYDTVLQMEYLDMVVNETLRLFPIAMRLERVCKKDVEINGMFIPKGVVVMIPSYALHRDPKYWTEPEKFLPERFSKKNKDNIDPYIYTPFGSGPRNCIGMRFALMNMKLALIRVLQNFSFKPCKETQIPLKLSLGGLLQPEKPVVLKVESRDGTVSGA
T1 sequence (P35991 whole entry): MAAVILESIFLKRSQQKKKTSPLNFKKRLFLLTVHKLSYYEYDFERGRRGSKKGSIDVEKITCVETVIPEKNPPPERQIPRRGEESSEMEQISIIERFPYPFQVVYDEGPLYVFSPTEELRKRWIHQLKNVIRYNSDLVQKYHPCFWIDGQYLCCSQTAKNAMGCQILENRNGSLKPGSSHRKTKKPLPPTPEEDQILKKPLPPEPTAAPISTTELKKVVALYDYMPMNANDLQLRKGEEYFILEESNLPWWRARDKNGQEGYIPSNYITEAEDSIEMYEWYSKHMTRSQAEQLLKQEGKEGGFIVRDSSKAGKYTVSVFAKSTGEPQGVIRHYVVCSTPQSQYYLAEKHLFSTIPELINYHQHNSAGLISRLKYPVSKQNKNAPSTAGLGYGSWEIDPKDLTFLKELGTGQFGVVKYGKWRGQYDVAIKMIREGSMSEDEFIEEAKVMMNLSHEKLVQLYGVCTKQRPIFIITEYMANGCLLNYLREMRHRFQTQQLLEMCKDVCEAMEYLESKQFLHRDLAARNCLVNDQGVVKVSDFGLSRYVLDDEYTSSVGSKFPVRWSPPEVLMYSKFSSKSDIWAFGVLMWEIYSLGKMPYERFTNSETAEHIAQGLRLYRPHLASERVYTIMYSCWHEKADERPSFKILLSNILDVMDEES

CC#CC(=O)N1CCC[C@H]1c1nc(-c2ccc(C(=O)Nc3ccccn3)cc2)c2c(N)nccn12 [Formula (2), (S)-4-(8-amino-3-(1-(but-2-ynoyl)pyrrolidin-2-yl)imidazo[1,5-a]pyrazin-1-yl)-N-(pyridin-2-yl)benzamide]
inhibition of expression of activation markers CD69 and CD86 [1]: more potent at inhibiting expression of activation makers than Formula (10) (ibrutinib) | CD8+ T cell function as % cytotoxicity (CD8+ T cell [2]): no effect on CD8^+ T cell function as measured by % cytotoxicity relative to vehicle | CD8+ T cell function as IFN-γ level (CD8+ T cell [3]): no effect on CD8^+ T cell function as measured by IFN-γ level relative to vehicle | body temperature, cardiovascular, ECG (including QT interval) parameters [4]: no meaningful changes | CYP responsible for metabolism (CYP3A4): metabolized by CYP3A4 | metabolites in hepatocytes [5]: two mono-oxidized metabolites and a glutathione conjugate | metabolic processes in plasma, bile, and urine [6]: oxidation, glutathione binding, and hydrolysis | potential for clinical drug-drug interactions via CYP enzymes (CYP enzymes): very unlikely to cause clinical drug-drug interactions | CD8+ T cells (ID8 ovarian cancer): increase | immunosuppressive B cells, including Bregs (ID8 ovarian cancer; tumor-bearing mice): significant reduction | immunosuppressive tumor-associated lymphocytes (ID8 ovarian cancer; tumor-bearing mice): significant reduction | CD8+ cells in tumor tissues ([7]; 15 mg/kg BID): significant increase | MDSCs in tumor tissues ([7]; 15 mg/kg BID): significantly reduced | Tregs in tumor tissues ([7]; 15 mg/kg BID): significantly reduced | immunosuppressive TAMs in tumor tissues ([7]; 15 mg/kg BID): significantly reduced | survival at day 28 ([7]; 15 mg/kg BID orally): 5/6 | average tumor volume, day 28 ([7]; 15 mg/kg BID orally, day 28): 272 mm^3 | average tumor volume, predose ([7]; 15 mg/kg BID orally, predose): 165 mm^3 | tumor volumes versus vehicle (NSCLC (KrasLA2)): significant decrease | irreversible BTK occupancy in granulocytic and monocytic MDSCs (BTK): Complete BTK occupancy | inhibition of trastuzumab-stimulated NK cell degranulation [8]: no inhibitory effect | Th17 development (Th17 and Treg cells): no adverse effect | Treg development (Th17 and Treg cells): no adverse effect | CD8+ T cell viability (CD8+ T cells): not observed | absolute lymphocyte count (ALC) (CLL): much smaller relative increase and much faster decrease in absolute lymphocyte count (ALC)
